Laboratory results as given in PubChem BioAssay (NCI).
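48-hour exposure; five concentrations; linearly interpolated endpoints. TGI: concentration producing complete growth inhibition.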

Columns and labels:
Test in all cases: NCI anticancer screen, dose series, 48 h
[1] = tested on: KM20L2 colon
[2] = tested on: OVCAR-5 ovarian
[3] = tested on: A549 NSCLC
[4] = tested on: U251 CNS
[5] = tested on: MALME-3M melanoma
[6] = tested on: ACHN renal
[7] = tested on: HCT-116 colon
[8] = tested on: UACC-62 melanoma
[9] = tested on: COLO 205 colon
[10] = tested on: HOP-62 NSCLC
[11] = tested on: RPMI-8226 leukemia
[12] = tested on: NCI-H23 lung
[13] = tested on: IGROV1 ovarian
[14] = tested on: UACC-257 melanoma
[15] = tested on: OVCAR-8 ovarian
[16] = tested on: SK-MEL-28 melanoma
[17] = tested on: M19-MEL melanoma
[18] = tested on: SF-539 CNS
[19] = tested on: SK-OV-3 ovarian
[20] = tested on: NCI-H460 lung
[21] = tested on: LOX IMVI melanoma
[22] = tested on: RXF 393 renal
[23] = tested on: CCRF-CEM leukemia
[24] = tested on: HL-60(TB) leukemia
[25] = tested on: UO-31 renal
[26] = tested on: LXFL 529 NSCLC
[27] = tested on: OVCAR-3 ovarian
[28] = tested on: SNB-75 CNS
[29] = tested on: HOP-18 NSCLC
[30] = tested on: HCC-2998 colon
[31] = tested on: KM12 colon
[32] = tested on: SNB-78 CNS
[33] = tested on: SNB-19 CNS
[34] = tested on: SF-295 CNS
[35] = tested on: MOLT-4 leukemia
[36] = tested on: DLD-1 colon
[37] = tested on: SR leukemia
[38] = tested on: SK-MEL-2 melanoma
[39] = tested on: HT29 colon
[40] = tested on: HCT-15 colon
[41] = tested on: DMS 114 small cell lung
[42] = tested on: SK-MEL-5 melanoma
[43] = tested on: A498 renal
[44] = tested on: SN12C renal
[45] = tested on: EKVX NSCLC
[46] = tested on: TK-10 renal
[47] = tested on: K-562 leukemia
[48] = tested on: DMS 273 small cell lung
[49] = tested on: NCI-H226 lung
[50] = tested on: SW-620 colon
[51] = tested on: M14 melanoma
[52] = tested on: NCI-H522 lung
[53] = tested on: 786-0 renal
[54] = tested on: OVCAR-4 ovarian
[55] = tested on: XF 498 CNS
[56] = tested on: CAKI-1 renal
[57] = tested on: SF-268 CNS
[58] = tested on: HOP-92 NSCLC

`IC[P+]1(c2ccccc2)CCCC1` was tested, and the TGI [1] was greater than 100 µM, the TGI [2] was greater than 100 µM and the TGI [3] was greater than 100 µM. The TGI [4] was 29.4 µM, the TGI [5] was greater than 100 µM and the TGI [6] was greater than 100 µM. The TGI [7] was greater than 100 µM, the TGI [8] was greater than 100 µM and the TGI [9] was 31 µM. The TGI [10] was greater than 100 µM, the TGI [11] was greater than 100 µM and the TGI [12] was greater than 100 µM. The TGI [13] was greater than 100 µM, the TGI [14] was greater than 100 µM and the TGI [15] was greater than 100 µM. It also gave a TGI [16] greater than 100 µM, a TGI [17] of 81 µM and a TGI [18] greater than 100 µM. It also gave a TGI [19] greater than 100 µM, a TGI [20] of 76.9 µM and a TGI [21] greater than 100 µM. The TGI [22] was greater than 100 µM, the TGI [23] was greater than 100 µM and the TGI [24] was greater than 100 µM. It also gave a TGI [25] greater than 100 µM, a TGI [26] greater than 100 µM and a TGI [27] greater than 100 µM. For the same compound, the TGI [28] was 62.7 µM, the TGI [29] was greater than 100 µM and the TGI [30] was greater than 100 µM. It also gave a TGI [31] greater than 100 µM, a TGI [32] greater than 100 µM and a TGI [33] greater than 100 µM. The TGI [34] was greater than 100 µM, the TGI [35] was greater than 100 µM and the TGI [36] was greater than 100 µM. It also gave a TGI [37] greater than 100 µM, a TGI [38] greater than 100 µM and a TGI [39] greater than 100 µM. The TGI [40] was greater than 100 µM, the TGI [41] was 36.3 µM and the TGI [42] was 83.1 µM. For the same compound, the TGI [43] was 88.6 µM, the TGI [44] was 60.8 µM and the TGI [45] was 46.1 µM. It also gave a TGI [46] greater than 100 µM, a TGI [47] greater than 100 µM and a TGI [48] greater than 100 µM. It also gave a TGI [49] of 89 µM, a TGI [50] greater than 100 µM and a TGI [51] greater than 100 µM. For the same compound, the TGI [52] was 21.6 µM and the TGI [53] was greater than 100 µM.
`COc1ccc2nccc(C3=CCC4CCN(C(=O)c5ccccc5)C3C4)c2c1` (stereo not given) was tested, and the TGI [3] was greater than 100 µM, the TGI [54] was greater than 100 µM and the TGI [4] was greater than 100 µM. It also gave a TGI [5] greater than 100 µM, a TGI [7] greater than 100 µM and a TGI [55] greater than 100 µM. It also gave a TGI [8] greater than 100 µM, a TGI [9] greater than 100 µM and a TGI [10] greater than 100 µM. It also gave a TGI [56] greater than 100 µM, a TGI [11] greater than 100 µM and a TGI [57] greater than 100 µM. It also gave a TGI [12] greater than 100 µM, a TGI [13] greater than 100 µM and a TGI [14] greater than 100 µM. The TGI [58] was greater than 100 µM, the TGI [15] was greater than 100 µM and the TGI [16] was greater than 100 µM. For the same compound, the TGI [17] was greater than 100 µM, the TGI [18] was greater than 100 µM and the TGI [19] was greater than 100 µM. For the same compound, the TGI [20] was greater than 100 µM, the TGI [21] was greater than 100 µM and the TGI [22] was greater than 100 µM. It also gave a TGI [23] greater than 100 µM, a TGI [24] greater than 100 µM and a TGI [25] greater than 100 µM. The TGI [26] was greater than 100 µM, the TGI [27] was greater than 100 µM and the TGI [28] was greater than 100 µM. It also gave a TGI [30] greater than 100 µM, a TGI [31] greater than 100 µM and a TGI [32] greater than 100 µM. It also gave a TGI [33] greater than 100 µM, a TGI [34] greater than 100 µM and a TGI [35] greater than 100 µM. The TGI [36] was greater than 100 µM, the TGI [38] was greater than 100 µM and the TGI [39] was greater than 100 µM. For the same compound, the TGI [40] was greater than 100 µM, the TGI [41] was greater than 100 µM and the TGI [42] was greater than 100 µM. For the same compound, the TGI [43] was greater than 100 µM, the TGI [44] was greater than 100 µM and the TGI [45] was greater than 100 µM. For the same compound, the TGI [46] was greater than 100 µM, the TGI [47] was greater than 100 µM and the TGI [48] was greater than 100 µM. The TGI [50] was greater than 100 µM, the TGI [51] was greater than 100 µM and the TGI [52] was greater than 100 µM. The TGI [53] was greater than 100 µM.
